In US4952689A, “3-(substituted propylidene)-2-azetidinone derivates for blood platelet aggregation” (Taisho Pharmaceutical Co., Ltd., priority 1988, dated 1990):

tested on: acute thrombocytopenia; experiment: Inhibitory effect on acute thrombocytopenia in mice (ADP-induced); assay type: in vivo, male ICR mice; conditions: 300 mg/kg by gavage 2 hours prior to ADP (1 mg/kg, tail vein); platelet count at 30 seconds after ADP
Method: Experiment [Inhibitory effect on acute thrombocytopenia in mice]
Ten male ICR mice weighing 20-30 g were used for each group. Under pentobarbital anaesthesia, adenosine diphosphate (ADP) dissolved in physiological saline in a dose of 1 mg/kg was injected into the tail vein and 20 μl of blood was collected from the femoral artery at 30 seconds after injection of ADP. Immediately after blood sampling, platelet counts were measured with an automatic blood cell counter (Sysmex CC-180A). Platelet count of normal group without injection of ADP was measured as well.
Test drugs [Compounds 2 and 3 (the compounds of the present invention) and Compound 1 (the comparative drug) in Table 1] were suspended in 5% gum arabic solution and administered by gavage in a dose of 300 mg/kg 2 hours prior to injection of ADP. As control group, 5% gum arabic solution without test drugs was administered.
Inhibition ratio of acute thrombocytopenia was calculated by the following formula. [formula]
Note: A: Platelet count of the group treated with both test drug and ADP
B: Platelet count of control group with both 5% gum arabic solution and ADP
C: Platelet count of normal group without injection of ADP

Row | Structure (SMILES) | Inhibition Ratio [%]
1 | COc1ccc(N2C(=O)/C(=C/C(C)=NOCC(=O)O)C2c2ccccc2)cc1 (stereo not drawn) [Compound 1, (E)-1-(4-Methoxyphenyl)-3-(2-carboxymethoxyiminopropylidene)-4-phenyl-2-azetidinone, reference compound] | 12.00
2 | COc1ccc(N2C(=O)/C(=C/C(C)=NOCCCN3CCOCC3)C2c2ccccc2)cc1 (stereo not drawn) [Compound 2, (E)-1-(4-Methoxyphenyl)-3-{2-[3-(4-morpholinyl)propoxyimino]propylidene}-4-phenyl-2azetidinone] | 54.66
3 | COc1ccc(N2C(=O)/C(=C/C(C)=NOCCCN3CCN(c4ccccn4)CC3)C2c2ccccc2)cc1 (stereo not drawn) [Compound 3, (E)-1-(4-Methoxyphenyl)-3-[2-[3-{1-[4-(2-pyridyl)piperadinyl]}propoxyimino]-propylidene]-4-phenyl-2-azetidinone] | 57.61
